Laboratory results taken from US20220323429A1, “PIMAVANSERIN FOR TREATING NEURODEGENERATIVE DISEASES” (ACADIA Pharmaceuticals Inc., priority 2019, published 2022).

Legend:
[1] = In-use Stability Assay (HPLC) of pimavanserin 34 mg capsule contents in liquid/soft food vehicles; type: physicochemical; conditions: for Assay: ambient; for Time 0 (%) assay: time 0, average (n=6) accuracy/recovery
Description: Analytical HPLC Stability Study experiments (Example 1) were performed on Agilent 1200 Series, or equivalent; Waters XBridge C18 column, 5 μm 150×4.6 mm; mobile phase: Solvent A: 50 mM ammonium bicarbonate, pH 8.0; Solvent B: acetonitrile/methanol, 80:20 (v/v); Flow rate: 1 mL/min; Inj. Volume 20 μL; Autosampler Temp. 5° C.; column temperature: 40° C., detection UV at 210 nm; sample concentration (as free base) assay: 0.068 mg/mL, impurity: 0.68 mg/mL; standard concentration (as free base) 0.068 mg/mL; PLOQ Std. 0.05% of 0.68 mg/mL; SST solution, 1% of 0.68 mg/mL (impurities A, C, D, E, F, and G); diluent for standards 80/20 (v/v) ethanol/water; diluent for samples, ethanol; run time 40 min; gradient method: 0 min mobile phase A (90%) and mobile phase B (10%) to 30 min mobile phase A (0%), and mobile phase B (100%); then 30.1 min to 40 min mobile phase A (90%), mobile phase B (10%).
The stability of pimavanserin for administration via a nasogastric (NG) tube was assessed by sprinkling the content of one pimavanserin 34 mg capsule in water, applesauce, vanilla Ensure, and non-pulp orange juice. Samples were tested at time 0, 2, 4, and 24 hours after storage at ambient conditions. Samples were prepared in triplicate and average (n=6) accuracy/recovery results from the assay method were used at time 0.
For each sample, one capsule was weighed, and the content of the capsule dropped into a 500 mL volumetric flask containing the amount of vehicle specified in Table 1. The empty capsule shell was weighed and discarded. The flasks were gently swirled to ensure the capsule contents were visually incorporated with the vehicle. The flasks were kept at ambient temperature for each time point 2, 4, and 24 hours. Time 0 samples were processed immediately.
At the specified time point, a stir bar and approximately 450 mL of diluent were added to the flask. The samples were stirred vigorously for 2 hours, and then left on the bench overnight. The following day the flasks were sonicated for approximately 15-30 minutes. The stir bar was removed and rinsed carefully with diluent into the flask, and then the flask was diluted to volume with diluent and mixed well by inversion. An aliquot of each solution was centrifuged for 5 minutes at 10000 rpm. The supernatant was transferred to a HPLC vial and injected for analysis.

[2] = Nasogastric Tube Compatibility Study, assay (HPLC); type: physicochemical
Description: Analytical HPLC Compatibility Study experiments (Example 2) were performed on Agilent 1200 Series, or equivalent; Waters XBridge C18 column, 5 μm 150×4.6 mm; mobile phase: Solvent A: 50 mM ammonium bicarbonate, pH 8.0; Solvent B: acetonitrile/methanol, 80:20 (v/v); Flow rate: 1 mL/min; Inj. Volume 60 μL; Autosampler Temp.: 5° C.; column temperature: 40° C.; the pooled limit of quantitation was 0.05% of 0.68 mg/mL; detection UV at 210 nm; sample concentration (as free base) assay: 0.034 mg/mL, impurity: 0.34 mg/mL; standard concentration (as free base) 0.034 mg/mL; PLOQ Std. 0.05% of 0.34 mg/mL; SST solution, 1% of 0.34 mg/mL (Impurities A, C, D, E, F, and G); diluent for standards 0.1N HCl; diluent for samples 0.1N HCl; run time, 40 min; gradient method: 0 min mobile phase A (90%) and mobile phase B (10%) to 30 min mobile phase A (0%), and mobile phase B (100%); then 30.1 min to 40 min mobile phase A (90%), mobile phase B (10%).
Three samples of pimavanserin in water (n=3) were prepared as follows. The content of one capsule was dropped into a 100 mL bottle, and the empty capsule shell was discarded. Approximately 40 mL of water was added into the bottle, and the bottle was swirled until the contents were disintegrated. Syringes were secured approximately 1 meter above the benchtop, and the plungers were removed. The Hydromer coating on the weighted top of the NG tube was activated by submerging the weight assembly in water for 10 seconds. The NG tube was flushed with 20 mL of water, and remaining water in the syringe and the NG tube was expelled with the help of the syringe plunger. The weighted tip of the NG tube was placed into 100 mL volumetric flasks on the benchtop.
For each sample, the aqueous dispersion was slowly poured into the syringe, allowing it to drain through the NG tube under gravity into the 100 mL collection volumetric flask. The original bottle containing the aqueous suspension of pimavanserin capsules was rinsed twice with 15 mL of water into the same syringe/NG tube system. The dispersion remaining in the syringe and NG tube was expelled with the help of the syringe plunger. Each flask was diluted to volume with 0.33N HCl (to make a final 0.1 N HCl concentration in the flask). The samples were sonicated for 15 minutes with intermediate shaking. A stir bar was added to the flask and the solution was stirred for 2 hours. An aliquot of each solution was centrifuged for 5 minutes at 10000 rom. The supernatant was transferred to a HPLC vial and injected for impurity analysis.
Samples were prepared by transferring the stock solution using a 2.0 mL volumetric pipet into a 20 mL volumetric flask, diluted to volume with 0.1 N HCl, and mixed well by inversion. An aliquot of each solution was centrifuged for 5 minutes at 10000 rpm. The supernatant was transferred to a HPLC vial and injected for analysis.
A “control” sample was prepared following the sample preparation procedure described above except it was not passed through a syringe/NG system. The content of one capsule was dropped into a 100 mL volumetric flask, and the empty capsule shell was discarded. Next 70 mL of water was added into the flask and swirled until the contents were completely disintegrated. The flask was diluted to volume with 0.33 N HCl (to make final 0.1N HCl concentration). The sample was sonicated for 15 minutes with intermediate shaking. A stir bar was dropped into the flask, and the solution was stirred for 2 hours. An aliquot was taken and centrifuged for 5 minutes at 10000 rpm. The supernatant was transferred to a HPLC vial and injected for impurity analysis.

Assay ([1]; 34 mg capsule in Ensure 60 mL, T = 2 h): 100.3% | Assay ([1]; 34 mg capsule in Ensure 60 mL, T = 4 h): 100.7% | Assay ([1]; 34 mg capsule in Ensure 60 mL, T = 24 h): 98.1% | Assay ([1]; 34 mg capsule in applesauce 40 g, T = 2 h): 99.9% | Assay ([1]; 34 mg capsule in applesauce 40 g, T = 4 h): 97.7% | Assay ([1]; 34 mg capsule in applesauce 40 g, T = 24 h): 96.3% | Assay ([1]; 34 mg capsule in non-pulp orange juice 60 mL, T = 2 h): 99.2% | Assay ([1]; 34 mg capsule in non-pulp orange juice 60 mL, T = 4 h): 98.0% | Assay ([1]; 34 mg capsule in non-pulp orange juice 60 mL, T = 24 h): 98.3% | Assay ([1]; 34 mg capsule in water 40 mL, T = 2 h): 97.7% | Assay ([1]; 34 mg capsule in water 40 mL, T = 4 h): 95.6% | Assay ([1]; 34 mg capsule in water 40 mL, T = 24 h): 99.3% | Absolute Difference from Time 0 ([1]; Ensure, T = 2 h): 0.3% | Absolute Difference from Time 0 ([1]; Ensure, T = 4 h): 0.7% | Absolute Difference from Time 0 ([1]; Ensure, T = 24 h): 1.9% | Absolute Difference from Time 0 ([1]; applesauce, T = 2 h): 2.0% | Absolute Difference from Time 0 ([1]; applesauce, T = 4 h): 4.2% | Absolute Difference from Time 0 ([1]; applesauce, T = 24 h): 5.6% | Time 0 (%) assay ([1]; applesauce): 101.9% | Assay values difference from time 0 ([1]; individual capsules, up to 24 hours, all vehicles): ≤ 5% | Absolute Difference from Time 0 ([1]; orange juice, T = 2 h): 1.1% | Absolute Difference from Time 0 ([1]; orange juice, T = 4 h): 2.3% | Absolute Difference from Time 0 ([1]; orange juice, T = 24 h): 2.0% | Time 0 (%) assay ([1]; orange juice): 100.3% | stability in all vehicles ([1]; over 24 hours at ambient room temperature): acceptable | Time 0 (%) assay ([1]; vanilla Ensure): 100.0% | Absolute Difference from Time 0 ([1]; water, T = 2 h): 1.2% | Absolute Difference from Time 0 ([1]; water, T = 4 h): 3.3% | Absolute Difference from Time 0 ([1]; water, T = 24 h): 0.4% | Time 0 (%) assay ([1]; water): 98.9% | Assay (%) ([2]; 34 mg capsule in water passed through syringe/NG tube, sample N = 1): 92.2% | Assay (%) ([2]; 34 mg capsule in water passed through syringe/NG tube, sample N = 2): 92.7% | Assay (%) ([2]; 34 mg capsule in water passed through syringe/NG tube, sample N = 3): 96.3% | Assay (%) ([2]; NG Tube Control: capsule in water, not passed through syringe/NG system): 91.5% | difference of assay between control sample and mean of 3 NG tube samples ([2]; aqueous dispersion of 34 mg capsule): ≤ 2% | effect of in vitro administration through a NG tube on stability ([2]; capsule contents added to different vehicles): no effect | Assay Mean % (n = 6) ([2]; mean of NG tube samples): 93.8%
Structure (SMILES): CC(C)COc1ccc(CNC(=O)N(Cc2ccc(F)cc2)C2CCN(C)CC2)cc1 [Pimavanserin, N-(4-Fluorophenylmethyl)-N-(1-methylpiperidin-4-yl)-N′-(4-(2-methylpropyloxy)phenylmethyl)carbamide]
